Literature values, collected in patent publication US20050202101A1, “Method and composition for preventing or reducing the symptoms of insulin resistance syndrome” (Interhealth Nutraceuticals Incorporated, priority 2001, published 2005).

Tested on: obese women
Conditions: with exercise

## chromium picolinate
  body weight change: significant weight gain
